{"source": "paper PMC5059943", "about": "“Screening for peptides targeted to IL-7Rα for molecular imaging of rheumatoid arthritis synovium” (Arthritis Research & Therapy, 2016)", "key": {"IL-7Rα": {"target": "T1, IL-7Rα (Homo sapiens, UniProt P16871)", "T1 construct": "screened against the extracellular domain of IL-7Rα (E^21–D^239); Fc (chimera partner); purchased R&D Systems", "T1 sequence (P16871 21-239)": "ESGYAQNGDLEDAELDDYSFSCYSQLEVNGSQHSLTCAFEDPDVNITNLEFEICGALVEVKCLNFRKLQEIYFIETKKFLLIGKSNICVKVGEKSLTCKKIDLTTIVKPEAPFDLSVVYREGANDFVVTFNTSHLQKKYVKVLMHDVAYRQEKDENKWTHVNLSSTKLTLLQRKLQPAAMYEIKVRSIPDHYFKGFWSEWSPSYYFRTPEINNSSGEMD", "assay": "ELISA of biotinylated peptides, K*d for IL-7Rα", "type": "binding", "conditions": "synthesized peptides, IL-7Rα vs. FN", "description": "(§1) Serial dilutions of biotinylated peptides were incubated with IL-7Rα or FN immobilized on ELISA plates as described above and blocked with protein-free blocking buffer (PFBB) (Perbioscience, Erembodegem, Belgium). Peptides bound to the target were detected with a goat anti-biotin antibody, followed by a peroxidase-conjugated anti-goat antibody made in horse (both from Vector Labconsult, Brussels, Belgium). […] The protocol is largely described in Additional file 1: Methods. […]\n(§2) screening of the phage clones.\n(§3) After 30 min of incubation, the […]\n(§4) antibody as described above.\n(§5) 2. Characterization of the selected IL-7Rα-binding peptides […]\n(§6) by an incubation of 2h at 37°C. The wells were subsequently incubated (1h, room temperature) […]\n(§7) 20 and 0.5% BSA (1h, room temperature). After each incubation step, the wells were washed with PBST-0.05% using a microplate washer. The staining reaction was developed with 0.1 […]\n(§8) For this purpose, a range of IL-"}, "[1]": {"system": "IL-7Rα expression of Jurkat cells", "assay": "IL-7Rα expression of ADC vs. NS Jurkat cells", "type": "cell-based", "conditions": "0.4 μM ADC, 4 days", "experimental": "Jurkat cells were cultured in RPMI-1640 culture medium supplemented with 10 % newborn calf serum heat-inactivated and 1 % antibiotic-antimycotic (all from Invitrogen). The cells were stimulated with 0.4 μM of 5-Aza-2’-deoxycytidine (ADC, Sigma-Aldrich) [26]. The stimulated cells were immobilized on poly-L-lysine (Sigma-Aldrich) coated coverslips and fixed in a solution of 4 % formaldehyde (Sigma-Aldrich). […] Biotinylated peptides were detected with a goat anti-biotin antibody followed by fluorescein-conjugated rabbit anti-goat antibody (both from Vector Labconsult). Anti-IL-7Rα antibody was detected with Texas Red horse anti-mouse antibody (Vector Labconsult). […] The coverslips were mounted on slides with Vectashield mounting medium for fluorescence with 4',6-diamidino-2-phenylindole (DAPI) (Vector Labconsult) and observed on a DM2000 Leica microscope equipped with a DFC 425C camera (Leica Microsystems, Groot Bijgaarden, Belgium).\nUSPIO-P258 was co-localized with IL-7Rα expressed by Jurkat cells using an immunofluorescence protocol. […] The coverslips were finally mounted on slides with a mounting medium for fluorescence (Vector Labconsult). The RRFL was evaluated as described above."}, "[2]": {"system": "lysosome content of Jurkat cells", "assay": "Lysosome content of Jurkat cells (Lysotracker Red DND-99)", "type": "cell-based"}, "low-affinity IL-7R": {"target": "low-affinity IL-7R", "conditions": "read-out: Kd of IL-7 against low-affinity IL-7R, reported previously; cited from earlier work", "description": "(§9) In addition, two antibodies were used to detect IL-7, which means that additional rinsing steps may contribute to extensive prot ..."}, "high-affinity IL-7R": {"target": "high-affinity IL-7R", "conditions": "read-out: Kd of IL-7 against high-affinity IL-7R, reported previously; cited from earlier work", "description": "as §9"}, "[3]": {"system": "STAT5 activation in ADC-stimulated Jurkat cells", "assay": "Phospho-STAT5 detection on ADC-stimulated Jurkat cells by immunofluorescence", "type": "cell-based, human", "description": "The solutions were replaced every day after culture tube centrifugation and supernatant removal.\nThe signal intensity (SI) was measured on microphotographs corresponding to three to six different microscopic fields using the ImageJ software (National Institutes of Health, USA), and the relative ratio of fluorescent labeling (RRFL) was then calculated using the subsequent equation: RRFL=SIsample/Numberofcells/SInegativecontrols/Numberofcells×100 […]\nstained with 0.05% 3,3'-diaminobenzidine (DAB) completed with 0.02% H2O2 in PBS. Finally, they were counterstained with Hemalun and Luxol fast blue and mounted in a permanent […]\nTo validate the binding of biotinylated P258 to human knee sections, the endogenous biotin was first blocked with a blocking kit (Invitrogen). The histologic sections were then incubated (4°C, overnight) with 1 µM of P258, followed by an incubation (1h, room […]\ngoat antibody made in horse (Vector Labconsult). The staining and counterstaining were performed as described above for anti-IL-7Rα monoclonal antibody.\n2.5. Phospho-STAT5 detection on Jurkat cells and modulation by peptide P725 Jurkat cells were cultured and stimulated with ADC as described above. The experiment was performed in triplicate on stimulated and non -stimulated cells that were distributed in several culture tubes at a concentration of 10^6 cells/mL and treated (37°C in a humidified 5% CO2 incubator) with different compounds diluted in the culture medium as follows: (A) cells […]\nfor 30 min with 1 mM of P725; (C) cells pre-incubated for 30 min with 10 µg/mL of mo use […]\nIn the case of samples B and C, the […]\nreplaced every day after centrifuging the culture tubes and removing the precedent solutions by […]\nAt the end of the treatment period, the cells were immobilized on poly -L-lysine coated coverslips and fixed with 4% formaldehyde as described above. After three times rinsing with PBS, the cells were treated with 100% methanol for 10 min at -20°C. […] The primary antibodies bound to the cells were then detected by a co- […]"}, "[4]": {"system": "IL-7Rα expressed by ADC-stimulated Jurkat cells", "assay": "Binding of peptides to ADC-stimulated Jurkat cells and co-localization with IL-7Rα by immunofluorescence", "type": "cell-based, human", "description": "The cells were stimulated with 0.4 μM of 5-Aza-2’-deoxycytidine (ADC, Sigma-Aldrich). The stimulated cells were immobilized on poly-L-lysine (Sigma-Aldrich) coated coverslips and fixed in a solution of 4 % formaldehyde (Sigma-Aldrich). […] Biotinylated peptides were detected with a goat anti-biotin antibody followed by fluorescein-conjugated rabbit anti-goat antibody (both from Vector Labconsult). Anti-IL-7Rα antibody was detected with Texas Red horse anti-mouse antibody (Vector Labconsult). Control samples consisted of ADC-stimulated or non-stimulated (NS) Jurkat cells incubated with low-affinity peptide binders (e.g., P255, P259), a mouse IgG isotype control, or with secondary antibodies after excluding the primary antibodies. […] The protocol is additionally described in Additional file 1: Methods.\nto the target was detected as described above.\n(Sigma-Aldrich) diluted in PBS.\n(Vector Labconsult) diluted in phosphate buffer. They were then co-incubated (1h, room\ncamera (Leica Microsystems, Groot Bijgaarden, Belgium)."}, "[5]": {"target": "IL-7Rα (high-affinity receptor) (Homo sapiens) (UniProt P16871)", "conditions": "cited from earlier work"}, "FN": {"target": "T2, FN (Homo sapiens, UniProt P02751)", "T2 construct": "fragment 3 of recombinant human FN-1 (R&D Systems); purchased R&D Systems", "T2 sequence (P02751 607-1265 limits assumed)": "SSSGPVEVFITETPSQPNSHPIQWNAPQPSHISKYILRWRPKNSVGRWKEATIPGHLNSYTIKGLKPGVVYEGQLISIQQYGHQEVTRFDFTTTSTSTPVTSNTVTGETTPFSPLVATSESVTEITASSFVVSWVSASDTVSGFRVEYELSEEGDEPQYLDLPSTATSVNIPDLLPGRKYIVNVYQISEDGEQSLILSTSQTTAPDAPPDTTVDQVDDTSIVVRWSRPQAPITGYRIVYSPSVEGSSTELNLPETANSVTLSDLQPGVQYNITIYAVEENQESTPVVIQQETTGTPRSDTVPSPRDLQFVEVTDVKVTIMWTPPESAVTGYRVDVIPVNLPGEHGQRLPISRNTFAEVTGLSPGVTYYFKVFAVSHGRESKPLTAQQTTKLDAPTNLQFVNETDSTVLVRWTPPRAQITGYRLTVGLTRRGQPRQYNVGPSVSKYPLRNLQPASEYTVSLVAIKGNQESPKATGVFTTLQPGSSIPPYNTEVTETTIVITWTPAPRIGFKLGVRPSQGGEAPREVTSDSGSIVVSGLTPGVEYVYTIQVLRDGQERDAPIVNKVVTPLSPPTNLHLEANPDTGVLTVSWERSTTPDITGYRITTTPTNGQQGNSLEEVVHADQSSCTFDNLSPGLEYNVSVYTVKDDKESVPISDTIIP", "assay": "ELISA of biotinylated peptides, K*d for FN", "type": "binding", "conditions": "Fig. 1a, 2 h at 37 °C, read-out: Kd: FN, synthesized peptides", "description": "as §1, §2, §3, §4, §5, §6, §7, §8"}, "IL-7Rα 21-239 [6]": {"target": "T3, IL-7Rα 21-239 (Homo sapiens, UniProt P16871)", "T3 chain": "T1 sequence (P16871 21-239)", "assay": "ELISA"}, "IL-7Rα 21-239 [7]": {"target": "T3, IL-7Rα 21-239", "assay": "competition ELISA vs IL-7"}}, "note": "Where a SMILES comes first, the peptide text is derived from it. Bridges are numbered along the chain shown (N, C = ends). Where no end group is shown, it is not given here. The star is where a group is joined. Biotin = O=C1N[C@H]2[C@H](CS[C@H]2CCCCC(=O)*)N1; AEEA = NCCOCCOCC(=O)O"}
{"molecule": "C[C@@H]1NC(=O)[C@@H]2CCCN2C(=O)[C@H](CCCNC(=N)N)NC(=O)[C@H](CCC(N)=O)NC(=O)[C@@H]2CCCN2C(=O)[C@H](Cc2c[nH]cn2)NC(=O)[C@@H]2CCCN2C(=O)[C@@H](NC(=O)COCCOCCNC(=O)CCCC[C@@H]2SC[C@@H]3NC(=O)N[C@@H]32)CSSC[C@@H](C(N)=O)NC1=O", "note": "[Peptide P722] ({Biotin-AEEA}-CPHPQRPAC-NH2; disulfide 1-9; C-terminus assumed)", "values": [{"measurement": "Relative affinity for IL-7Rα and FN, peptides", "setting": "IL-7Rα", "result": "lost its affinity against IL-7Rα, displaying equivalent binding to FN"}]}
{"molecule": "C[C@@H]1NC(=O)[C@@H](NC(=O)COCCOCCNC(=O)CCCC[C@@H]2SC[C@@H]3NC(=O)N[C@@H]32)CSSC[C@@H](C(N)=O)NC(=O)[C@H](Cc2c[nH]cn2)NC(=O)[C@@H]2CCCN2C(=O)[C@@H]2CCCN2C(=O)[C@H](CS)NC(=O)[C@H](C)NC(=O)[C@H](CO)NC1=O", "note": "[Peptide P726] ({Biotin-AEEA}-CASACPPHC-NH2; disulfide 1-9; C-terminus assumed)", "values": [{"measurement": "Relative affinity for IL-7Rα and FN, peptides", "setting": "IL-7Rα", "result": "highest specific binding to IL-7Rα"}]}
{"molecule": "Nc1ncn([C@H]2C[C@H](O)[C@@H](CO)O2)c(=O)n1", "note": "[ADC, 5-Aza-2’-deoxycytidine]", "values": [{"measurement": "IL-7Rα expression in ADC cells vs. NS cells (fold)", "setting": "[1]", "result": "about six"}]}
{"molecule": "IL-7: human recombinant IL-7 (R&D Systems; eBioscience)", "values": [{"measurement": "Increase in lysosome content", "setting": "[2]; IL-7 vs. ADC-treated controls", "result": 398, "unit": "%"}, {"measurement": "Kd", "setting": "low-affinity IL-7R", "result": 0.01, "unit": "µM"}, {"measurement": "Kd", "setting": "high-affinity IL-7R", "result": 0.0002, "unit": "µM"}, {"measurement": "Increase in phospho-STAT-5", "setting": "[3]; IL-7 6 ng/mL, 48 h, vs. ADC-treated controls", "result": 424, "unit": "%"}]}
{"molecule": "CC[C@H](C)[C@@H]1NC(=O)[C@H](CCCCN)NC(=O)[C@@H](NC(=O)COCCOCCNC(=O)CCCC[C@@H]2SC[C@@H]3NC(=O)N[C@@H]32)CSSC[C@@H](C(N)=O)NC(=O)[C@@H]2CCCN2C(=O)[C@H](CCSC)NC(=O)[C@H](CO)NC(=O)[C@H](CCCCN)NC(=O)[C@H](CCSC)NC1=O", "note": "[Peptide P725] ({Biotin-AEEA}-CKIMKSMPC-NH2; disulfide 1-9; C-terminus assumed)", "values": [{"measurement": "Co-localization with IL-7Rα", "setting": "[4]; biotinylated P258 (0.04 μM) or P725 (5 μM)", "result": "co-localizes with peptides"}, {"measurement": "Decrease of anti-IL-7Rα monoclonal antibody staining intensity", "setting": "[4]; biotinylated P725 (5 μM), overnight 4 °C", "result": 57, "unit": "%"}, {"measurement": "Lysosome content after treatment", "setting": "[2]; with IL-7, P725 or anti-IL-7Rα antibody, p < 0.05", "result": "significantly diminished"}, {"measurement": "Inhibition of IL-7-induced STAT5 activation", "setting": "[3]; P725 1 mM or antibody 10 µg/mL pre-incubated 30 min, then IL-7 6 ng/mL 48 h, ADC-stimulated Jurkat cells", "result": 82, "unit": "%"}, {"measurement": "Prevention of IL-7 binding and STAT-5 activation", "setting": "[3]; P725 1 mM or antibody 10 µg/mL pre-incubated 30 min, then IL-7 6 ng/mL 48 h, p < 0.01", "result": "prevented IL-7 binding and STAT-5 activation"}]}
{"molecule": "IL-7 (from UniProt P13232)", "values": [{"measurement": "Kd", "setting": "[5]", "result": 0.0002, "unit": "µM"}]}
{"molecule": "ASACPPH-NH2 [Peptide P258]", "values": [{"measurement": "Kd", "setting": "FN", "result": 1.8, "unit": "µM"}]}
{"molecule": "ASACPPH-NH2 (also: AEEA attached, end not given here, conjugated to PEGylated USPIO)", "note": "[USPIO-P258]", "values": [{"measurement": "Kd", "setting": "IL-7Rα 21-239 [6]", "result": 4.9, "unit": "µM"}, {"measurement": "IC50", "setting": "IL-7Rα 21-239 [7]", "result": 6.6, "unit": "µM"}]}
{"molecule": "CKIMKSMPC (disulfide 1-9 (inferred); also: AEEA attached, end not given here)", "values": [{"measurement": "IC50", "setting": "IL-7Rα 21-239 [7]", "result": 16.4, "unit": "µM"}]}
{"molecule": "CKIMKSMPC (disulfide 1-9 (inferred); also: biotin-AEEA attached, end not given here)", "values": [{"measurement": "Kd", "setting": "IL-7Rα 21-239 [6]", "result": 1.1, "unit": "µM"}]}
{"molecule": "ASACPPH (also: biotin-AEEA attached, end not given here)", "note": "[P258]", "values": [{"measurement": "Kd", "setting": "IL-7Rα 21-239 [6]", "result": 0.6, "unit": "µM"}]}
